Data: article PMC9942948 (Journal of medicinal chemistry, 2022)

How the values were obtained:
[1] = target: WT Polθ (Homo sapiens, UniProt O75417); assay: Differential Scanning Fluorimetry; assay type: binding; details: compound alone, no DNA
[2] = Mouse liver microsomal stability; assay type: in vitro ADME; details: liver microsomes
[3] = Metabolite identification in mouse microsomes; assay type: in vitro ADME
[4] = Metabolite identification in human microsomes; assay type: in vitro ADME
[5] = PK on days 1 and 7 of BID oral dosing in CD-1 nude mice; assay type: in vivo; details: Day 7 vs Day 1, BID oral
[6] = in vitro; assay type: in vitro ADME, canine; details: dog, MDCK
[7] = target: full-length Polθ (aa 1–2590), ATPase activity (Homo sapiens, UniProt O75417); assay: Full-length Polθ ATPase activity; assay type: biochemical
Chain of full-length Polθ (aa 1–2590), ATPase activity (O75417 whole entry, the tested form may be a part): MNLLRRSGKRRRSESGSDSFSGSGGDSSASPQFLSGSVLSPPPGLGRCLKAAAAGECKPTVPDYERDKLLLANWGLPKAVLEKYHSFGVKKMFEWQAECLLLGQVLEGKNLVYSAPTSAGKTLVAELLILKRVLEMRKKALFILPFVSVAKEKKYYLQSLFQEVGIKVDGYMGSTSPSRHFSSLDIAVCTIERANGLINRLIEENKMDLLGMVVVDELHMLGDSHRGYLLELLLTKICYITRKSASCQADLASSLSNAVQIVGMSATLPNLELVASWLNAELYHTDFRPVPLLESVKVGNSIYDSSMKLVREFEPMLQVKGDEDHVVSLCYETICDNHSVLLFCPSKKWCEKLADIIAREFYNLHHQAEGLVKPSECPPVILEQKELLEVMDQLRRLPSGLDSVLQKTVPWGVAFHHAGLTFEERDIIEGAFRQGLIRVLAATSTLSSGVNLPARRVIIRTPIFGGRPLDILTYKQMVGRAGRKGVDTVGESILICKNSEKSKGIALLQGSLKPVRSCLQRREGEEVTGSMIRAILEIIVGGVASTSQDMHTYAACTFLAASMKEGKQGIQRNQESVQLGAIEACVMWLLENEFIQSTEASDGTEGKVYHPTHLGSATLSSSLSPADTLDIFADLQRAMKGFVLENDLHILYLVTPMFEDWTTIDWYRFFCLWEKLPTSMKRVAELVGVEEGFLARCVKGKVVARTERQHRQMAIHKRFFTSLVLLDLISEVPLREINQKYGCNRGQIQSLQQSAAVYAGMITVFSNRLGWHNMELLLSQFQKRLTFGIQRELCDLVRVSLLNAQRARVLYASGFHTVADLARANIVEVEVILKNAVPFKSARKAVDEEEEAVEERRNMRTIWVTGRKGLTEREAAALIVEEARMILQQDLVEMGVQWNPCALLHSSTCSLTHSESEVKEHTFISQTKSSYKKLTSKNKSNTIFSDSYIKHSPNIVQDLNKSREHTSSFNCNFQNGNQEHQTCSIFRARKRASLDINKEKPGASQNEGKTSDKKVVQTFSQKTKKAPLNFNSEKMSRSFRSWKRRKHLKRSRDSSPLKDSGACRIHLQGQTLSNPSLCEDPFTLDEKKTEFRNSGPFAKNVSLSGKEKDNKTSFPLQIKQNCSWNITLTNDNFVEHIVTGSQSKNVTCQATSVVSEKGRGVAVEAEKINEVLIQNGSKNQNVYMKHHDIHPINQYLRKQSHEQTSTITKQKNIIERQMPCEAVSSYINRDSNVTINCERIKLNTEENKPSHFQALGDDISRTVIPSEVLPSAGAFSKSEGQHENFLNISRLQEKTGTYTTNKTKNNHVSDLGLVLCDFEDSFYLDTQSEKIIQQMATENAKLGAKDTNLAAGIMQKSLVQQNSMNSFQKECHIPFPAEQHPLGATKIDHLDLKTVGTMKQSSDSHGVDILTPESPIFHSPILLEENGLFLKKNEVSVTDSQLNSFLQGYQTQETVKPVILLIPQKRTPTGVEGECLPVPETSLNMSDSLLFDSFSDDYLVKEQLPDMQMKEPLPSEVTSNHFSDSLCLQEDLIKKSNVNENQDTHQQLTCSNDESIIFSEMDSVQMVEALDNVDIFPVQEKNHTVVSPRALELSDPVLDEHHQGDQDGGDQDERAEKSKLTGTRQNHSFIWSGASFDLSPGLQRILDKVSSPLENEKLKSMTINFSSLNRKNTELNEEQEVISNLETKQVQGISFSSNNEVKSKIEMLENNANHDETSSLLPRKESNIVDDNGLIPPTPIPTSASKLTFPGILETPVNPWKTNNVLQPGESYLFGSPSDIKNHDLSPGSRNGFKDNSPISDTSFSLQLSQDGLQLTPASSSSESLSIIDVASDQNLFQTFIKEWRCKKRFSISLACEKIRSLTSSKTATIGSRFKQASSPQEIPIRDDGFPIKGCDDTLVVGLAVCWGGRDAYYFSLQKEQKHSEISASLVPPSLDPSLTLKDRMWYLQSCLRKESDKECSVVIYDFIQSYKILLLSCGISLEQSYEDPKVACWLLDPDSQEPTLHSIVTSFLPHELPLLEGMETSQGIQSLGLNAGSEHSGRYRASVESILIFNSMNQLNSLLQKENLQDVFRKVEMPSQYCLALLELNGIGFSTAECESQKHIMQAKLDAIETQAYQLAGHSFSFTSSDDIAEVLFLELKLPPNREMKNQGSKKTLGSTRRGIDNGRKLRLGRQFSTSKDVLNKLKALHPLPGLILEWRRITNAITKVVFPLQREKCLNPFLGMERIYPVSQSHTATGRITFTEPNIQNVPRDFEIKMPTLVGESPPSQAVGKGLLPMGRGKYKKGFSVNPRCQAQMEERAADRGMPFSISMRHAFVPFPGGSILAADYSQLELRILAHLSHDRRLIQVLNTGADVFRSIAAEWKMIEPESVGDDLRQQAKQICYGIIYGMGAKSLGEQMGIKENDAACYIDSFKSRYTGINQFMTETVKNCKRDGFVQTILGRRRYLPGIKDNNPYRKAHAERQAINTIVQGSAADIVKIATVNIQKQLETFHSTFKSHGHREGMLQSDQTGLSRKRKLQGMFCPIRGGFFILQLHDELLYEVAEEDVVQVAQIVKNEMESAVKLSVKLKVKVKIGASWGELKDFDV

[8] = target: T1, Pol λ (Homo sapiens, UniProt Q9UGP5); assay: DNA polymerase selectivity, Pol λ
T1 sequence (Q9UGP5 1-575): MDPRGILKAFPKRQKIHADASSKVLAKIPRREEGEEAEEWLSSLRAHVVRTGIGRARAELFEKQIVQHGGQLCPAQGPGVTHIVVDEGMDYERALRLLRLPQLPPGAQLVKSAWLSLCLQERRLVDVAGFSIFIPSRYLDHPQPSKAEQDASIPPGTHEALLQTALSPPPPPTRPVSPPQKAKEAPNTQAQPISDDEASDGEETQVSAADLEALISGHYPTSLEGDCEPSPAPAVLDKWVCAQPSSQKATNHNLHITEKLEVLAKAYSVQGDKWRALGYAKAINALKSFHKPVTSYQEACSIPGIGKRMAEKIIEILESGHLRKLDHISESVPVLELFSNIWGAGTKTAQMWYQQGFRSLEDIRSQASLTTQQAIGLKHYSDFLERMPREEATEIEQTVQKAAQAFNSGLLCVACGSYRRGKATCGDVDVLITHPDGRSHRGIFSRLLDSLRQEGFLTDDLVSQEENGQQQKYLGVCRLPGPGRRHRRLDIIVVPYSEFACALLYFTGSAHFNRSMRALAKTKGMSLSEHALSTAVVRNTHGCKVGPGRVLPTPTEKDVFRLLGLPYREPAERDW

[9] = tested on: MMEJ in 293T-Lig4−/−TLR1.1 cells; assay: Traffic-light reporter assay; assay type: cell-based, human; details: HEK293 LIG4−/− cell line
[10] = tested on: HCT116 BRCA2−/− xenograft tumor cells; assay: PD markers by immunofluorescence in cells isolated from tumors; assay type: in vivo, mouse
[11] = Mouse PK, iv/po in CD1 mice; assay type: in vivo; details: female, whole blood, 2.5 mg/kg
[12] = target: Pol ε (Homo sapiens, UniProt Q07864); assay: DNA polymerase selectivity, Pol ε
Chain of Pol ε (Q07864 whole entry): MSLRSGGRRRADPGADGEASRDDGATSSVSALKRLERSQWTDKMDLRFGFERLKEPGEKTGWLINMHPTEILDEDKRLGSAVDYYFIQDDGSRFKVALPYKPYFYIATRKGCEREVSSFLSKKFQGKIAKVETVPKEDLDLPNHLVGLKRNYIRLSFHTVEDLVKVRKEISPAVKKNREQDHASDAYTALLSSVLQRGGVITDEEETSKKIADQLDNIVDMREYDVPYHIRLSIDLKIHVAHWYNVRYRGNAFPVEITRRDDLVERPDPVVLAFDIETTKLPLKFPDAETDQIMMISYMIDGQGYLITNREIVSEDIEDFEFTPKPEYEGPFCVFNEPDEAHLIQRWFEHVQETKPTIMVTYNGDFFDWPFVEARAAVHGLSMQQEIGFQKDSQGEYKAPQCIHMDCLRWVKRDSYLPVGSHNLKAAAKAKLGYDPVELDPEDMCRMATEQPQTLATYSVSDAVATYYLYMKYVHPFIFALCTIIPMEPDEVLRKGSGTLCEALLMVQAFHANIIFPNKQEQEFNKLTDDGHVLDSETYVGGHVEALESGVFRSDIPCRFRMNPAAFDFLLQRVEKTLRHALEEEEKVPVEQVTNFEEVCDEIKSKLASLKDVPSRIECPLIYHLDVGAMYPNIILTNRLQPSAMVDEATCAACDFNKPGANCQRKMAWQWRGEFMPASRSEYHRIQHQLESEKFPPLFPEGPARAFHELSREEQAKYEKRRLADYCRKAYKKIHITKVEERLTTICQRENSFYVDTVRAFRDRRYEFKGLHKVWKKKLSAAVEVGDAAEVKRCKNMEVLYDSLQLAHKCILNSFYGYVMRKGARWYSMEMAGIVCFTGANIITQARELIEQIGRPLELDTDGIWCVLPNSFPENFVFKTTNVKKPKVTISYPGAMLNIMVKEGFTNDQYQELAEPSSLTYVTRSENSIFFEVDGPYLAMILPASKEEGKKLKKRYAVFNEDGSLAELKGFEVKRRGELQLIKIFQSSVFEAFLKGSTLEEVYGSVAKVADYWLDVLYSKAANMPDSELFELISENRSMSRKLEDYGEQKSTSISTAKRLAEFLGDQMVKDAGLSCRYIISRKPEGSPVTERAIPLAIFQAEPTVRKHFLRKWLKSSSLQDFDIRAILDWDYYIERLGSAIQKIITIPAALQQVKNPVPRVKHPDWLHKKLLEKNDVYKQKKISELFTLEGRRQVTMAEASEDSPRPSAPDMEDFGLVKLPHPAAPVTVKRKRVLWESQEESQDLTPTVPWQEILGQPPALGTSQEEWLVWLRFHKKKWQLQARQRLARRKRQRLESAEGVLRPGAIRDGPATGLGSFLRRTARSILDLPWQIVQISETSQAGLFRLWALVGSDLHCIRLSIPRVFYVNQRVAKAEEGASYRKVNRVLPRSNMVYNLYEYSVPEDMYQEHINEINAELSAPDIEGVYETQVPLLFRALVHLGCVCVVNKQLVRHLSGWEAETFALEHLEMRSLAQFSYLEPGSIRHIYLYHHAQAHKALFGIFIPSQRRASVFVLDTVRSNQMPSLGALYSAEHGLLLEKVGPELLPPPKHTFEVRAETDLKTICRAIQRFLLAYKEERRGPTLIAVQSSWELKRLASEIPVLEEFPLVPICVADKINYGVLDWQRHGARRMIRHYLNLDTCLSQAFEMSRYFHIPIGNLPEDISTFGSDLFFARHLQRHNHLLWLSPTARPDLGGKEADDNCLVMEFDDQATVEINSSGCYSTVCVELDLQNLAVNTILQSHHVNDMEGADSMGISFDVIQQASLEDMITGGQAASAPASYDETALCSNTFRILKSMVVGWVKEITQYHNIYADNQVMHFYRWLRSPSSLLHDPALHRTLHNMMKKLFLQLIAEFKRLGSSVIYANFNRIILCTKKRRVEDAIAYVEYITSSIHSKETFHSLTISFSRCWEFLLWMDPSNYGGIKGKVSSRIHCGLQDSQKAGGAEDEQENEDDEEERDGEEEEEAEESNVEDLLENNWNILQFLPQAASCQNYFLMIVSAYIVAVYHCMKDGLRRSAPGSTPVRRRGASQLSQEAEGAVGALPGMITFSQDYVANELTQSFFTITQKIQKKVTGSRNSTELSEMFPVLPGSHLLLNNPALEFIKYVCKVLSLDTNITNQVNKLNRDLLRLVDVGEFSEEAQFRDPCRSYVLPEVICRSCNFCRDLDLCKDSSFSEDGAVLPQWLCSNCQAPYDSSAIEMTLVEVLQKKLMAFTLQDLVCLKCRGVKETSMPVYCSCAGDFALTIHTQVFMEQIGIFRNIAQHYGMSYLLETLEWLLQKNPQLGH

[13] = tested on: HCT116 BRCA2+/+ xenograft tumors; assay: HCT116 BRCA2+/+ xenograft efficacy; assay type: in vivo, mouse; details: 80 mg/kg BID PO, 21 days
[14] = Tolerability in the xenograft study; assay type: in vivo
[15] = tested on: Polθ-mediated MMEJ repair at AAVS1 locus in HCT116 WT cells; assay: Cas9-induced double-strand DNA break assay; assay type: cell-based; details: Homo sapiens, HCT-116, read-out: potency in DSB repair of AAVS1 loci
[16] = tested on: HCT116 BRCA2−/− xenograft tumors; assay: HCT116 BRCA2−/− xenograft efficacy; assay type: in vivo, mouse; details: 80 mg/kg BID PO, BRCA2-deficient HCT116
[17] = target: Pol μ (Homo sapiens, UniProt Q9NP87); assay: DNA polymerase selectivity, Pol μ
[18] = nude mice, 80 mg/kg BID PO, 21 days

Chain of WT Polθ (O75417 whole entry): as the sequence (O75417 whole entry, the tested form may be a part) above

CN(C(=S)Cn1nc2c(c1C(F)(F)F)CCC2)c1ccccc1 [Compound 14]
thermal stabilization of WT Polθ [1]: did not show any thermal stabilization

CN(C(=O)Cc1ccc(C(F)(F)F)cc1C(F)(F)F)c1ccccc1 [Compound 15]
microsomal CLint [2]: > 555 µL/min/mg | major routes of metabolism [3]: N-demethylation and hydroxylation of the phenyl ring | major routes of metabolism [4]: N-demethylation and hydroxylation of the phenyl ring

CC1CCc2nn(CC(=O)N(C)c3ccccc3)c(C(F)(F)F)c21 (stereo not drawn) [Compound 9]
thermal stabilization of WT Polθ [1]: did not show any thermal stabilization

Nc1ccc(C#CCN(C(=O)Cc2ncc(C(F)(F)F)cc2C(F)(F)F)c2ccc(F)cc2)nn1 [RP-6685, N-[3-(6-Aminopyridazin-3-yl)prop-2-ynyl]-2-[3,5-bis(trifluoromethyl)-2-pyridyl]-N-(4-fluorophenyl)acetamide]
decline of exposure over the week of dosing [5]: 55 – 67% | Papp [6]: 6.2 ×10⁻⁶ cm/s | activity on the ATPase activity of full-length Polθ [7]: inactive | activity on Pol λ [8]: inactive | effect on MMEJ in TLR assay [9]: dose-dependent decrease in MMEJ | PD markers micronuclei and γH2AX [10]: modest trend towards increased micronuclei and γH2AX | clearance [11]: 36.8 mL/min/kg | IC50 [12]: > 100000 nM | activity on Pol ε [12]: inactive | tumor growth inhibition [13]: no tumor growth inhibition | MTD at 21 days ([14]; female, CD1 Nude, mouse, in vivo, po, 80 mg/kg BID): 80 mg/kg | body weight change [14, 18]: no significant body weight loss | tolerability [14, 18]: well tolerated | IC50 [15]: 500 nM | difference to vehicle by Day 21 [16]: not statistically significant | activity on Pol μ [17]: inactive
